# From patent US10800791B2, “Triazole ACC inhibitors and uses thereof” (Gilead Apollo, LLC, priority 2015, dated 2020)
# Where two headings read alike, the source gives them in different places.
# Tests used:
# [1] = test system: C. albicans; assay: Antifungal Activity Assay (broth microtiter MIC), C. albicans; type: cell-based, Candida albicans; settings: Candida albicans, ATCC90028, 48 h
# Method in brief: (§1)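 Colonies from 24 h Sabouraud dextrose agar plates (35° C) are suspended in RPMI 1640+MOPS and diluted to give 2.5×10^3 CFU/mL in the wells. Plates are set up per CLSI M27-A3. Visual MIC is recorded at 48 h.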
# [2] = test system: C. krusei; assay: Antifungal Activity Assay (broth microtiter MIC), C. krusei; type: cell-based, Candida krusei; settings: Pichia kudriavzevii, ATCC6258, 48 h
# Method in brief: as §1
# [3] = test system: Botrtyis cinerea (Bc); assay: Growth inhibition assay of fungal pathogens, Bc; type: cell-based; settings: 48 h
# Method in brief: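 Spores diluted in 17% V8 liquid media and incubated with compound at final 50, 10, 2 ppm or 2, 0.4, 0.08 ppm (2% DMSO). OD600 plus visual ratings at 24 and 48 hours, blank-subtracted; percent growth inhibition from 48 h readings relative to 2% DMSO control.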
# [4] = Table 3b (additional results), ATCC 90028, 3 replicates, MIC recorded at 48 h, read-out: MIC, C. albicans ATCC 90028
# [5] = Table 3b (additional results), ATCC 6258, 3 replicates, MIC recorded at 48 h, read-out: MIC, C. krusei ATCC 6258
# [6] = Botrtyis cinerea, growth inhibition at 48 hours vs 2% DMSO control, read-out: Concentration at 90% Inhibition Bc
# [7] = Botrtyis cinerea, growth inhibition vs 2% DMSO control at 48 hours, read-out: Concentration at 90% Inhibition Bc
# [8] = read-out: MIC, C. albicans ATCC 90028, Table 3b (additional results), 3 replicates, MIC recorded at 48 h
# [9] = read-out: MIC, C. krusei ATCC 6258, Table 3b (additional results), 3 replicates, MIC recorded at 48 h
# [10] = read-out: Concentration at 90% Inhibition Bc, Botrtyis cinerea, growth inhibition at 48 hours vs 2% DMSO control
# [11] = read-out: Concentration at 90% Inhibition Bc, Botrtyis cinerea, growth inhibition vs 2% DMSO control at 48 hours
# [12] = read-out: MIC, C. albicans ATCC 90028, Table 3a, 3 replicates, MIC recorded at 48 h
# [13] = read-out: MIC, C. krusei ATCC 6258, Table 3a, 3 replicates, MIC recorded at 48 h
# [14] = Table 3a, ATCC 90028, 3 replicates, MIC recorded at 48 h, read-out: MIC, C. albicans ATCC 90028
# [15] = Table 3a, ATCC 6258, 3 replicates, MIC recorded at 48 h, read-out: MIC, C. krusei ATCC 6258
Compound,"MIC [1, 4] [µg/mL]","MIC [2, 5] [µg/mL]","IC90 [3, 6] [µg/mL]","IC90 [3, 7] [µg/mL]","MIC [1, 8] [µg/mL]","MIC [2, 9] [µg/mL]","IC90 [3, 10] [µg/mL]","IC90 [3, 11] [µg/mL]","MIC [1, 12] [µg/mL]","MIC [2, 13] [µg/mL]","MIC [1, 14] [µg/mL]","MIC [2, 15] [µg/mL]"
"COCCCO[C@@H](Cn1c(=O)n(C(C)(C)C(=O)N2CCCC2)c(=O)c2c(C)c(-n3nccn3)sc21)c1cc(F)ccc1OC [Compound I-68, (R)-1-(2-(5-fluoro-2-methoxyphenyl)-2-(3-methoxy-propoxy)ethyl)-5-methyl-3-(2-methyl-1-oxo-1-(pyrrolidin-1-yl)propan-2-yl)-6-(2H-1,2,3-triazol-2-yl)thieno[2,3-d]pyrimidine-2,4(1H,3H)-dione]",2.01 to 4,2.01 to 4,2,2,,,,,,,,
"COCCCO[C@@H](Cn1c(=O)n(C(C)(C)C(=O)NC(C)C)c(=O)c2c(C)c(-n3nccn3)sc21)c1cc(F)ccc1OC [Compound I-69, (R)-2-(1-(2-(5-fluoro-2-methoxyphenyl)-2-(3-methoxy-propoxy)ethyl)-5-methyl-2,4-dioxo-6-(2H-1,2,3-triazol-2-yl)-1,4-dihydrothieno[2,3-d]pyrimidin-3(2H)-yl)-N-isopropyl-2-methylpropanamide]",,,,,1.01 to 2,0.25 to 1,0.4,0.4,,,,
"C=CCNC(=O)C(C)(C)n1c(=O)c2c(C)c(-n3nccn3)sc2n(C[C@H](OC2CCOCC2)c2cc(F)ccc2OC)c1=O [Compound I-70, (R)—N-allyl-2-(1-(2-(5-fluoro-2-methoxyphenyl)-2-((tetrahydro-2H-pyran-4-yl)oxy)ethyl)-5-methyl-2,4-dioxo-6-(2H-1,2,3-triazol-2-yl)-1,4-dihydrothieno[2,3-d]pyrimidin-3(2H)-yl)-2-methylpropanamide]",,,,,0.25 to 1,0.25 to 1,2,2,0.25 to 1,0.25 to 1,,
"C=CCN(C)C(=O)C(C)(C)n1c(=O)c2c(C)c(-n3nccn3)sc2n(C[C@H](OC2CCOCC2)c2cc(F)ccc2OC)c1=O [Compound I-71, (R)—N-allyl-2-(1-(2-(5-fluoro-2-methoxyphenyl)-2-((tetrahydro-2H-pyran-4-yl)oxy)ethyl)-5-methyl-2,4-dioxo-6-(2H-1,2,3-triazol-2-yl)-1,4-dihydrothieno[2,3-d]pyrimidin-3(2H)-yl)-N,2-dimethylpropanamide]",0.25 to 1,0.25 to 1,0.4,0.4,,,,,,,0.25 to 1,0.25 to 1
"C=CCO[C@@H](Cn1c(=O)n(C(C)(C)C(=O)NC(C)C)c(=O)c2c(C)c(-n3nccn3)sc21)c1cc(F)ccc1OC [Compound I-72, (R)-2-(1-(2-(allyloxy)-2-(5-fluoro-2-methoxyphenyl)ethyl)-5-methyl-2,4-dioxo-6-(2H-1,2,3-triazol-2-yl)-1,4-dihydrothieno[2,3-d]pyrimidin-3(2H)-yl)-N-isopropyl-2-methylpropanamide]",,,,,1.01 to 2,0.25 to 1,2,2,2.1 to 4,0.25 to 1,,
"COc1ccc(F)cc1[C@H](Cn1c(=O)n(C(C)(C)C(=O)NC2CC2)c(=O)c2c(C)c(-n3nccn3)sc21)OC(C)C [Compound I-73, (R)—N-cyclopropyl-2-(1-(2-(5-fluoro-2-methoxyphenyl)-2-isopropoxyethyl)-5-methyl-2,4-dioxo-6-(2H-1,2,3-triazol-2-yl)-1,4-dihydrothieno[2,3-d]pyrimidin-3(2H)-yl)-2-methylpropanamide]",0.25 to 1,0.06 to 0.249,2,2,,,,,,,0.25 to 1,0.25 to 1
"COc1ccc(F)cc1[C@H](Cn1c(=O)n(C(C)(C)C(=O)N2CCCC2)c(=O)c2c(C)c(-n3nccn3)sc21)OCCN(C)C [Compound I-75, (R)-1-(2-(2-(dimethylamino)ethoxy)-2-(5-fluoro-2-methoxyphenyl)ethyl)-5-methyl-3-(2-methyl-1-oxo-1-(pyrrolidin-1-yl)propan-2-yl)-6-(2H-1,2,3-triazol-2-yl)thieno[2,3-d]pyrimidine-2,4(1H,3H)-dione]",2.01 to 4,2.01 to 4,> 50,> 50,,,,,,,2.1 to 4,2.1 to 4
